Reference: patent US20090081194A1, “COMPOSITIONS AND METHODS FOR REDUCING RISK OF DEVELOPMENT, OR SEVERITY, OF INAPPROPRIATE IMMUNE RESPONSE IN EYES” (priority 2007, published 2009)

Legend:
[1] = test system: mouse peritoneal neutrophils; experiment: Cytokine production (ELISA) by activated mouse peritoneal neutrophils; type: cell-based; conditions: 15 hours
Experimental: In one experiment, mouse peritoneal neutrophils were isolated from C57BL/6 mice that had received intraperitoneal injection of 1% casein solution containing 0.5 mM MgCl2 and 0.99 mM CaCl2 16 hours and 3 hours prior to harvesting in Hank's balanced salt solution (“HBSS”) lavage. Collected cells were centrifuged (2000 rpm, 10 min) and washed twice in HBSS, prior to separation of granulocytes by Percol gradient at 31,500 rpm for 20 min. Cells were washed twice and resuspended in Dubelco's modified eagle's medium (“DMEM”) containing 10% fetal calf serum (Invitrogen, Basel Switzerland). Purity of 98% neutrophils was verified by Diff-Quik stain (VWR, Bridgeport, N.J.). Neutrophils (1×10^5/well) were pre-incubated with 100 ng/ml GM-CSF at 37° C. for 1 hour prior to exposure to compositions of the present invention comprising 0.08-10 μg/ml of inhibitory ODN 2088 (InvivoGen, San Diego, Calif.; sequence disclosed above) or a control composition containing 20 μg/ml of the control ODN 1911 (Operon Qiagen, Valencia, Calif.; having a sequence of […]), or the medium only, for 30 minutes prior to activation with 20 μg/ml of stimulatory ODN 1826 (Operon Qiagen, Valencia, Calif.; having a sequence of […]); 20 μg/ml of endotoxin-free DNA from E. coli K12 (InvivoGen, San Diego, Calif.); killed Staphylococcus aureus strain E2061740 (3×10^5 cfu/ml); 100 ng/ml of Pam3Cys (synthetic lipopeptide (S)-(2,3-bis(palmitoyloxy)-(2RS)-propyl)-N-palmitoyl-(R)-Cys-(S)-Ser-(S)-Lys4-OH, EMC Microcollections, Tubingen, Germany); or 200 ng/ml of LPS (ultra pure lipopolysaccharide from E. coli 0111:B4 strain, InvivoGen, San Diego, Calif.). After 15 hours at 37° C., supernates were collected for ELISA assay (R&D Systems, Minneapolis, Minn.) for pro-inflammatory cytokines macrophage inflammatory protein-2 (“MIP-2”), keratinocyte-derived chemokines (“KC”), IL-6, and TNF-α. […] The production of these pro-inflammatory cytokines was not affected when neutrophils activated by Pam3Cys or LPS were treated with a composition comprising the inhibitory ODN 2088. This not surprising in view of the fact that the inhibitory ODN 2088 inhibits the activation of TLR9 while LPS and Pam3Cys activate TLR4 and TLR2, respectively. Other inhibitors of TLR2 and TLR4 activation should be effective in suppressing corneal infiltrate induced by […], respectively.

C57BL/6 mouse cornea [2] = experiment: Mouse keratitis: neutrophil infiltrate in abraded cornea; type: in vivo; conditions: topical on abraded cornea, 24 hours, FIG. 5
Experimental: In this experiment, 1 μl of test solution containing 20 μg/ml of the synthetic stimulatory ODN 1826, 10 μg/ml of endotoxin-free DNA from E. coli K12, 20 μg/ml of Pam3Cys, or 20 μg/ml LPS, along with a composition of the present invention containing the inhibitory ODN 2088, the control composition containing 20 μg/ml of ODN 1911, or medium only, was applied to a 1 mm^2 abraded area of central C57BL/6 mouse cornea that had been marked by sterile trephine (Miltex, Tuttlingen, Germany) and abraded with an Alger brush II (Alger, PagoVista, Texas). After 24 hours, the corneal infiltrate was determined as the number of neutrophils per corneal section. […] Other inhibitors of TLR2 and TLR4 activation should be effective in suppressing corneal infiltrate induced by Pam3Cys and LPS, respectively.

C57BL/6 mouse cornea [3] = experiment: Corneal epithelium cytokines (ELISA) after stimulatory ODN on abraded mouse cornea; type: in vivo; conditions: stimulatory ODN 1826 20 μg/ml with ODN 2088 20 μg/ml, 5 hours; all three cytokines; FIG. 6
Experimental: In this experiment, 1 μl of test solution containing 20 μg/ml of the synthetic stimulatory ODN 1826, along with a composition of the present invention containing 20 μg/ml of the inhibitory ODN 2088, or a control composition containing 20 μg/ml of the control ODN 1911, or the medium only, was applied to a 1 mm^2 abraded area of central C57BL/6 mouse cornea that had been marked by sterile trephine (Miltex, Tuttlingen, Germany) and abraded with an Alger brush II (Alger, PagoVista, TX). After 5 hours, the corneal epithelium was separated after 20 minutes in 20 mM EDTA at 37° C. and placed into RPMI 1640 medium. Samples were disrupted by sonication for 88 seconds with 40% duty cycle (Vibracell; Sonics and Material, Danbury, Conn.). Cytokines were measured by ELISA assay (R&D Systems, Minneapolis, Minn.) for the pro-inflammatory cytokines MIP-2, KC, and human interferon-inducible protein 10 (“IP-10”).

TLR9 = biological target: T1, TLR9 (Homo sapiens, UniProt Q9NR96); conditions: Gursel et al. 2003; Stunz et al. 2002; cited from earlier work
T1 sequence (Q9NR96 26-1032): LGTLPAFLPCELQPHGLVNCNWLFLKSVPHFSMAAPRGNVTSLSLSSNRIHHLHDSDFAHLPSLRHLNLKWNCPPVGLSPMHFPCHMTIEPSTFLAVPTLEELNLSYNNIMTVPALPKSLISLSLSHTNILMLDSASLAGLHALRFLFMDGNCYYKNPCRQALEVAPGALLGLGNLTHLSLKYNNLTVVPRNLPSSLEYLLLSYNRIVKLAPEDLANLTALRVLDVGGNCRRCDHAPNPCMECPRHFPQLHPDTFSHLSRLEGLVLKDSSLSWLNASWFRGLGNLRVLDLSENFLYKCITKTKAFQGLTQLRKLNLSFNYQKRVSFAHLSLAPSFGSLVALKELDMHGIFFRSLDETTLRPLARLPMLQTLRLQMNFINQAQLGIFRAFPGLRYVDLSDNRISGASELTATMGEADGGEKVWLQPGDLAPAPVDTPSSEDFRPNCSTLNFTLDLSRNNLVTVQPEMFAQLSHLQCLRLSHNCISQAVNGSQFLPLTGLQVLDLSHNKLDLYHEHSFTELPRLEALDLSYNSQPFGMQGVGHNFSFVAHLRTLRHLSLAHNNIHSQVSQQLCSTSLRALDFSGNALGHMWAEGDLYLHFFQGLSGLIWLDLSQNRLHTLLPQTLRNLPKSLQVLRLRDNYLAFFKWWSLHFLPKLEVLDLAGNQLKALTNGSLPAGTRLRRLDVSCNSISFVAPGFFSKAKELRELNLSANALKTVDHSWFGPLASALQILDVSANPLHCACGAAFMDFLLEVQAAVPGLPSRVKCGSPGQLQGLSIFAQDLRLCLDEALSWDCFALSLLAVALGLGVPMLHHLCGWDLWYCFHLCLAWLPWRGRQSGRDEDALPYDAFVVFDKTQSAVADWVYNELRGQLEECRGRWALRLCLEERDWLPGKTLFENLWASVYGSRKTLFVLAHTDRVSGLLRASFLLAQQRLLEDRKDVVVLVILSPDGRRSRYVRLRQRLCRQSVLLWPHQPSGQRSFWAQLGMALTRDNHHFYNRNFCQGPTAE

## TCCTGGCGGGGAAGT (chemistry not given here) [ODN 2088]
[1]; activation with 100 ng/ml Pam3Cys
  pro-inflammatory cytokine production by neutrophils (MIP-2, KC, IL-6, TNF-α): not affected
[1]; activation with 200 ng/ml LPS
  pro-inflammatory cytokine production by neutrophils (MIP-2, KC, IL-6, TNF-α): not affected
[1]; activation with 20 μg/ml endotoxin-free DNA from E. coli K12, ODN 2088 0.08-10 μg/ml, dose dependent, FIGS. 1-4
  pro-inflammatory cytokine production by neutrophils (MIP-2, KC, IL-6, TNF-α): inhibited pro-inflammatory cytokine production
[1]; activation with 20 μg/ml stimulatory ODN 1826, ODN 2088 0.08-10 μg/ml, dose dependent, FIGS. 1-4
  pro-inflammatory cytokine production by neutrophils (MIP-2, KC, IL-6, TNF-α): inhibited pro-inflammatory cytokine production
[1]; activation with killed Staphylococcus aureus (3×10^5 cfu/ml)
  pro-inflammatory cytokine production by neutrophils (MIP-2, KC, IL-6, TNF-α): nondetectable levels
C57BL/6 mouse cornea [2]; LPS 20 μg/ml
  corneal infiltrate, number of neutrophils per corneal section: not effective in suppressing corneal infiltrates
C57BL/6 mouse cornea [2]; Pam3Cys 20 μg/ml
  corneal infiltrate, number of neutrophils per corneal section: not effective in suppressing corneal infiltrates
C57BL/6 mouse cornea [2]; bacterial DNA (E. coli K12) 10 μg/ml
  corneal infiltrate, number of neutrophils per corneal section: reduced the number of infiltrating neutrophils
C57BL/6 mouse cornea [2]; stimulatory ODN 1826 20 μg/ml
  corneal infiltrate, number of neutrophils per corneal section: reduced the number of infiltrating neutrophils
C57BL/6 mouse cornea [3]
  corneal cytokine response (MIP-2, KC, IP-10): reduced cytokine response
TLR9
  colocalization of CpG DNA with TLR9 within endosomal vesicles: block the colocalization
